Legend:
Assay in all cases: biochemical
[1] = target: T1, 371 kinases (kinase named in each endpoint) (Homo sapiens, UniProt Q15375); conditions: EPHA7
T1 construct: purchased Reaction Biology

[2] = target: T2, 371 kinases (kinase named in each endpoint) (Homo sapiens, UniProt Q04771); conditions: ALK2/ACVR1
T2 construct: purchased Reaction Biology

[3] = target: T3, 371 kinases (kinase named in each endpoint) (Homo sapiens, UniProt P19784); conditions: CK2A2
T3 construct: purchased Reaction Biology

[4] = target: T4, 371 kinases (kinase named in each endpoint) (Homo sapiens, UniProt P17948); conditions: FLT1/VEGFR1
T4 construct: purchased Reaction Biology

[5] = target: T5, 371 kinases (kinase named in each endpoint) (Homo sapiens, UniProt P30530); conditions: AXL
T5 construct: purchased Reaction Biology

[6] = target: T6, 371 kinases (kinase named in each endpoint) (Homo sapiens, UniProt P57078); conditions: RIPK4
T6 construct: purchased Reaction Biology

[7] = target: T7, 371 kinases (kinase named in each endpoint) (Homo sapiens, UniProt Q14289); conditions: PYK2
T7 construct: purchased Reaction Biology

[8] = target: T8, 371 kinases (kinase named in each endpoint) (Homo sapiens, UniProt P08069); conditions: IGF1R
T8 construct: purchased Reaction Biology

[9] = target: T9, 371 kinases (kinase named in each endpoint) (Homo sapiens, UniProt O95382); conditions: MEKK6
T9 construct: purchased Reaction Biology

[10] = target: T10, 371 kinases (kinase named in each endpoint) (Homo sapiens, UniProt P42684); conditions: ABL2/ARG
T10 construct: purchased Reaction Biology

[11] = target: T11, 371 kinases (kinase named in each endpoint) (Homo sapiens, UniProt Q8TDX7); conditions: NEK7
T11 construct: purchased Reaction Biology

[12] = target: T12, 371 kinases (kinase named in each endpoint) (Homo sapiens, UniProt P07332); conditions: FES/FPS
T12 construct: purchased Reaction Biology

[13] = target: T13, 371 kinases (kinase named in each endpoint) (Homo sapiens, UniProt Q9UBS0); conditions: P70S6KB/RPS6KB2
T13 construct: purchased Reaction Biology

[14] = target: T14, 371 kinases (kinase named in each endpoint) (Homo sapiens, UniProt P43250); conditions: GRK6
T14 construct: purchased Reaction Biology

[15] = target: T15, 371 kinases (kinase named in each endpoint) (Homo sapiens, UniProt O94806); conditions: PKCNU/PRKD3
T15 construct: purchased Reaction Biology

[16] = target: T16, 371 kinases (kinase named in each endpoint) (Homo sapiens, UniProt P54756); conditions: EPHA5
T16 construct: purchased Reaction Biology

[17] = target: T17, 371 kinases (kinase named in each endpoint) (Homo sapiens, UniProt Q13177); conditions: PAK2
T17 construct: purchased Reaction Biology

[18] = target: T18, 371 kinases (kinase named in each endpoint) (Homo sapiens, UniProt P04626); conditions: ERBB2/HER2
T18 construct: purchased Reaction Biology

[19] = target: T19, 371 kinases (kinase named in each endpoint) (Homo sapiens, UniProt P36896); conditions: ALK4/ACVR1B
T19 construct: purchased Reaction Biology

[20] = target: T20, 371 kinases (kinase named in each endpoint) (Homo sapiens, UniProt Q15349); conditions: RSK3
T20 construct: purchased Reaction Biology

[21] = target: T21, 371 kinases (kinase named in each endpoint) (Homo sapiens, UniProt P31749); conditions: AKT1
T21 construct: purchased Reaction Biology

[22] = target: T22, 371 kinases (kinase named in each endpoint) (Homo sapiens, UniProt O15111); conditions: IKKA/CHUK
T22 construct: purchased Reaction Biology

[23] = target: T23, 371 kinases (kinase named in each endpoint) (Homo sapiens, UniProt P36897); conditions: ALK5/TGFBR1
T23 construct: purchased Reaction Biology

[24] = target: T24, 371 kinases (kinase named in each endpoint) (Homo sapiens, UniProt Q9BXA7); conditions: STK22D/TSSK1
T24 construct: purchased Reaction Biology

[25] = target: T25, 371 kinases (kinase named in each endpoint) (Homo sapiens, UniProt Q99759); conditions: MEKK3
T25 construct: purchased Reaction Biology

[26] = target: T26, 371 kinases (kinase named in each endpoint) (Homo sapiens, UniProt Q9P0L2); conditions: MARK1
T26 construct: purchased Reaction Biology

[27] = target: T27, 371 kinases (kinase named in each endpoint) (Homo sapiens, UniProt Q8IYT8); conditions: ULK2
T27 construct: purchased Reaction Biology

[28] = target: T28, 371 kinases (kinase named in each endpoint) (Homo sapiens, UniProt O15264); conditions: P38D/MAPK13
T28 construct: purchased Reaction Biology

[29] = target: T29, 371 kinases (kinase named in each endpoint) (Homo sapiens, UniProt P22455); conditions: FGFR4
T29 construct: purchased Reaction Biology

[30] = target: T30, 371 kinases (kinase named in each endpoint) (Homo sapiens, UniProt O60307); conditions: MAST3
T30 construct: purchased Reaction Biology

[31] = target: T31, 371 kinases (kinase named in each endpoint) (Homo sapiens, UniProt Q9H2G2); conditions: SLK/STK2
T31 construct: purchased Reaction Biology

[32] = target: T32, 371 kinases (kinase named in each endpoint) (Homo sapiens, UniProt Q07002); conditions: CDK18/CYCLIN Y (PCTK3)
T32 construct: purchased Reaction Biology

[33] = target: T33, 371 kinases (kinase named in each endpoint) (Homo sapiens, UniProt Q8WTQ7); conditions: GRK7
T33 construct: purchased Reaction Biology

[34] = target: T34, 371 kinases (kinase named in each endpoint) (Homo sapiens, UniProt P06239); conditions: LCK
T34 construct: purchased Reaction Biology

[35] = target: T35, 371 kinases (kinase named in each endpoint) (Homo sapiens, UniProt P11309); conditions: PIM1
T35 construct: purchased Reaction Biology

[36] = target: T36, 371 kinases (kinase named in each endpoint) (Homo sapiens, UniProt P50750)
T36 construct: purchased Reaction Biology
T36 sequence (P50750 whole entry): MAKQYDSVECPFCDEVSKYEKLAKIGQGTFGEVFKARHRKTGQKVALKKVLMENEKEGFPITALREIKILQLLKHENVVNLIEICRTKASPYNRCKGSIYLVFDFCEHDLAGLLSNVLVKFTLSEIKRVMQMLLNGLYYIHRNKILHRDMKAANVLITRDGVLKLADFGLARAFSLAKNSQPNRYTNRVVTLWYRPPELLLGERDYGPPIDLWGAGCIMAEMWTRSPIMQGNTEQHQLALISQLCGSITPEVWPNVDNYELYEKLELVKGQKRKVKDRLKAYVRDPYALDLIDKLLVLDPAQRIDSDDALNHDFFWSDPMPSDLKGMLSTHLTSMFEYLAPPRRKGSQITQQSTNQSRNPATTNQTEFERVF

T10 sequence (P42684 whole entry): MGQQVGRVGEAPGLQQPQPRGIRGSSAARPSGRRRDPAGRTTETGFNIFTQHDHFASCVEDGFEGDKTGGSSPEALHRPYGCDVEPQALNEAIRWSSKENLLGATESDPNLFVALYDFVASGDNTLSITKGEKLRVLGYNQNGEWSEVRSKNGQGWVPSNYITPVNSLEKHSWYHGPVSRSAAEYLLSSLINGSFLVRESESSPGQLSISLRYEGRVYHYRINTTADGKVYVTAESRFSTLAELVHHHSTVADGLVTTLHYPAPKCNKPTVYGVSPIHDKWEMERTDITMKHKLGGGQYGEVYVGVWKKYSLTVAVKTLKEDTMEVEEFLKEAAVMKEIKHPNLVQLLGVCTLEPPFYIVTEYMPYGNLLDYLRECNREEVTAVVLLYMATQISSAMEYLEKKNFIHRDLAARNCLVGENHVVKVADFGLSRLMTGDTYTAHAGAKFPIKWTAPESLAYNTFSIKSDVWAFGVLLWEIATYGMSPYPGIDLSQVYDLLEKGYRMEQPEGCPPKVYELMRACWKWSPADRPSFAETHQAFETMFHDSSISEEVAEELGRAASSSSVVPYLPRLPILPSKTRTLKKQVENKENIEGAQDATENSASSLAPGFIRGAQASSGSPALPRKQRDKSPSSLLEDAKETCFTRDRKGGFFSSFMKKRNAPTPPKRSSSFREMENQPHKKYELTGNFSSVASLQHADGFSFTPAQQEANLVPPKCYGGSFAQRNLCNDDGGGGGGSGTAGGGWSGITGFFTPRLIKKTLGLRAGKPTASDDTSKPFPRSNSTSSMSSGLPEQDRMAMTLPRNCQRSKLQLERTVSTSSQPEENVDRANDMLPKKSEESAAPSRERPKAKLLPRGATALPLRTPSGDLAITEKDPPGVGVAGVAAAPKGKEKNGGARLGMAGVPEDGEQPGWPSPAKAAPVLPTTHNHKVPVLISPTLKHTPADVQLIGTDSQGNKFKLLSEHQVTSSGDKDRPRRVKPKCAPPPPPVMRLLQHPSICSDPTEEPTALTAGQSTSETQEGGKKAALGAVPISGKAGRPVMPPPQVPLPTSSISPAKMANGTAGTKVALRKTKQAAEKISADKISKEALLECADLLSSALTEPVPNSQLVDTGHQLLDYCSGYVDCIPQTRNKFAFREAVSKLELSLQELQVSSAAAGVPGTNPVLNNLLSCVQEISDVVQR
T7 sequence (Q14289 whole entry): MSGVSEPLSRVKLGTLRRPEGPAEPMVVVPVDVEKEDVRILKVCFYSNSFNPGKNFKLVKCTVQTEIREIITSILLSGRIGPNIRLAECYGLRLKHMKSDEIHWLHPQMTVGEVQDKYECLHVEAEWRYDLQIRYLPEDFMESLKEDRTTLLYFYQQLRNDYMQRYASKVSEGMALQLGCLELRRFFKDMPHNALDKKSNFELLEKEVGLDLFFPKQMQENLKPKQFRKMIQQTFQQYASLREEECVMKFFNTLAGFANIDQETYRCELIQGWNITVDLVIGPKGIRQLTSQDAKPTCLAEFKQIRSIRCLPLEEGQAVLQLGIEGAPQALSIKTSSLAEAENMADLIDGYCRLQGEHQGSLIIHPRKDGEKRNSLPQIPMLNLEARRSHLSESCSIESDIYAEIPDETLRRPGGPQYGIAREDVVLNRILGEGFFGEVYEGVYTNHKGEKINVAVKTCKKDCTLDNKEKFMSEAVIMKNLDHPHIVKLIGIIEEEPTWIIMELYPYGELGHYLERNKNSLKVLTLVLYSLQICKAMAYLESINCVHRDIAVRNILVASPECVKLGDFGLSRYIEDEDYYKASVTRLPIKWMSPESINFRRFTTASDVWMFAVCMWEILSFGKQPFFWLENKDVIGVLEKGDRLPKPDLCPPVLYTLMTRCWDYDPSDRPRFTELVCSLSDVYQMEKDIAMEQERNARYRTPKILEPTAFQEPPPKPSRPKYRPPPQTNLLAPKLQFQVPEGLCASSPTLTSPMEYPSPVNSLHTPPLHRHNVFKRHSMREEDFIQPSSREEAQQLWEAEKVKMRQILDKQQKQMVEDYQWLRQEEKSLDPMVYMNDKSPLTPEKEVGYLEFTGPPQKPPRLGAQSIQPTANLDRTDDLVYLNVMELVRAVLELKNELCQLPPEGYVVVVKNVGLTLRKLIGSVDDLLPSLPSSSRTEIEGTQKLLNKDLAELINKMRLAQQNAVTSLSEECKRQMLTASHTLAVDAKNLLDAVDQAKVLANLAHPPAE
T16 sequence (P54756 25-1037): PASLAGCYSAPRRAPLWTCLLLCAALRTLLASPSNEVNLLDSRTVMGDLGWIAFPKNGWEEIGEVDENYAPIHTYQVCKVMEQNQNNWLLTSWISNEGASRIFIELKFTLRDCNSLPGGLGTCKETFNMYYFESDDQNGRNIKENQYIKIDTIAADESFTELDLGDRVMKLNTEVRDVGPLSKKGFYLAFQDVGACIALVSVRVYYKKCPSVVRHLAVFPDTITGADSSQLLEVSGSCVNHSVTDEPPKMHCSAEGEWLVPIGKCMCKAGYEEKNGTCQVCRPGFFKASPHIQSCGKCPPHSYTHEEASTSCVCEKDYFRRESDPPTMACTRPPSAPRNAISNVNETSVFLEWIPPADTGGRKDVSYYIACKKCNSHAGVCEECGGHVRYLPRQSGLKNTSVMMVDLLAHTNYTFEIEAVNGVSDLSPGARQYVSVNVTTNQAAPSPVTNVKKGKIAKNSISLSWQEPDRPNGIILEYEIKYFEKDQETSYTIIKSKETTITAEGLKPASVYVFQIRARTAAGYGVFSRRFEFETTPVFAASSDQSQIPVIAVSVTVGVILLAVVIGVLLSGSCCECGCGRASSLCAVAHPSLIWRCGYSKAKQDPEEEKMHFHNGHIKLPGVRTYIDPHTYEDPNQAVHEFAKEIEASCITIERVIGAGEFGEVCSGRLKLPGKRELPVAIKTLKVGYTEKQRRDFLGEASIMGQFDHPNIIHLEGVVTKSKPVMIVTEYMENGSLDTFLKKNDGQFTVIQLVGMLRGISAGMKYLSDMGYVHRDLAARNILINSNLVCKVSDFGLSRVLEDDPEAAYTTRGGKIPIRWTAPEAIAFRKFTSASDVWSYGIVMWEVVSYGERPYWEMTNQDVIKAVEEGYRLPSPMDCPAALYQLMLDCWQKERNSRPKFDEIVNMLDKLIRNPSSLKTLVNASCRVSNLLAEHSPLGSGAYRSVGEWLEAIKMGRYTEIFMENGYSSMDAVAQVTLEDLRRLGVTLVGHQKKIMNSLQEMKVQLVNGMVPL
T30 sequence (O60307 whole entry): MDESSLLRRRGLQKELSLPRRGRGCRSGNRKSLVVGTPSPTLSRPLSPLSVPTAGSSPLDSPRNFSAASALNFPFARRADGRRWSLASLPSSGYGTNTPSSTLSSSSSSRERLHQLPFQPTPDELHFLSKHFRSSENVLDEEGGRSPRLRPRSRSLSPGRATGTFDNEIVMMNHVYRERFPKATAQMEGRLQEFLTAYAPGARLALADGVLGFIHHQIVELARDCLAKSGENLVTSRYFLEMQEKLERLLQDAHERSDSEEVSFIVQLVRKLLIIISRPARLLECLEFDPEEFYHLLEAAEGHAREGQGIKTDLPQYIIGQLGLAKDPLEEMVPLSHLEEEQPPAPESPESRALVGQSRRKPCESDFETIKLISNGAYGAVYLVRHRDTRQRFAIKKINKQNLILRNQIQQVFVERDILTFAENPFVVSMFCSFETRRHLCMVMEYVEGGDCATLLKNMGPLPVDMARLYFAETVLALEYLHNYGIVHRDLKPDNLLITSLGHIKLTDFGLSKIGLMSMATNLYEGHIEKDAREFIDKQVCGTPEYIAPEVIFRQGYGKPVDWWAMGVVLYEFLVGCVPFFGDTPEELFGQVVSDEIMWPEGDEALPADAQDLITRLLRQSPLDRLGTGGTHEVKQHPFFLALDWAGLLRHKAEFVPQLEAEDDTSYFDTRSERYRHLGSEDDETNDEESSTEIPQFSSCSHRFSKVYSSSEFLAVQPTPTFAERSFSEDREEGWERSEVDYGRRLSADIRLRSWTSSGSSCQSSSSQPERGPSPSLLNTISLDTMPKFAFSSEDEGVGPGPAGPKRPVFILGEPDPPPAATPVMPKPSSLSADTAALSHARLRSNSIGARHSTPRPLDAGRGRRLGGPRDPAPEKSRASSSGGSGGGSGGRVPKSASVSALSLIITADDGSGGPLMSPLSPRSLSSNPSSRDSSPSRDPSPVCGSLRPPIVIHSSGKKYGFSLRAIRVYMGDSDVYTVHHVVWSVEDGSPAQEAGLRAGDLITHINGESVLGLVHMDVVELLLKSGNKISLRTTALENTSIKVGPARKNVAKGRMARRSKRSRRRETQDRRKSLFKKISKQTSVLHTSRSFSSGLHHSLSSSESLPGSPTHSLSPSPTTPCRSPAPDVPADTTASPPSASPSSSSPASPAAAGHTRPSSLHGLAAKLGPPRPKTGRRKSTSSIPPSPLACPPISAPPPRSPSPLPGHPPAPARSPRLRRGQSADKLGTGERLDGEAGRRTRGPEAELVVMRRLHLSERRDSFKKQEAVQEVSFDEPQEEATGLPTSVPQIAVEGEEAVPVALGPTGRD

SMILES: O=C(O)c1cc(C(F)(F)F)ccc1NCCc1c[nH]c2cc(Br)ccc12 [Compound 5, 2-((2-(6-Bromo-1H-indol-3-yl)ethyl)amino)−5-(trifluoromethyl)benzoic Acid]
- activity at 10 µM [1]: 82.8 ± 2.2%
- activity at 10 µM [2]: 74.1 ± 1.8%
- activity at 10 µM [3]: 46.9 ± 0.5%
- activity at 10 µM [4]: 85 ± 0.7%
- activity at 10 µM [5]: 67.9 ± 1.8%
- activity at 10 µM [6]: 45.4 ± 0.9%
- activity at 10 µM [7]: 75.6 ± 1.9%
- activity at 10 µM [8]: 93.2 ± 0.1%
- activity at 10 µM [9]: 108 ± 1.4%
- activity at 10 µM [10]: 94.7 ± 2.8%
- activity at 10 µM [11]: 80.2 ± 0.8%
- activity at 10 µM [12]: 96.5 ± 1.8%
- activity at 10 µM [13]: 96.1 ± 1.6%
- activity at 10 µM [14]: 112 ± 2.8%
- activity at 10 µM [15]: 139 ± 7.1%
- activity at 10 µM [16]: 93.4 ± 0.3%
- activity at 10 µM [17]: 95.6 ± 0.3%
- activity at 10 µM [18]: 78 ± 0.2%
- activity at 10 µM [19]: 66.7 ± 0.1%
- activity at 10 µM [20]: 87 ± 1.4%
- activity at 10 µM [21]: 93.4 ± 0.2%
- activity at 10 µM [22]: 83.2 ± 1.4%
- activity at 10 µM [23]: 84.2 ± 0.1%
- activity at 10 µM [24]: 103.5 ± 0.1%
- activity at 10 µM [25]: 107 ± 1.1%
- activity at 10 µM [26]: 93.3 ± 0.5%
- activity at 10 µM [27]: 102.4 ± 0.4%
- activity at 10 µM [28]: 80.9 ± 2.2%
- activity at 10 µM [29]: 63.4 ± 6.7%
- activity at 10 µM [30]: 94.9 ± 0.2%
- activity at 10 µM [31]: 89.7 ± 3%
- activity at 10 µM [32]: 99 ± 0.1%
- activity at 10 µM [33]: 101.5 ± 0.4%
- activity at 10 µM [34]: 76.5 ± 2.7%
- activity at 10 µM [35]: 40.6 ± 3.2%
- activity at 10 µM ([36]; CDK9/CYCLIN K): 88.6 ± 0.7%
- activity at 10 µM ([36]; CDK9/CYCLIN T1): 81.5 ± 1.5%
- activity at 10 µM ([36]; CDK9/CYCLIN T2): 84.5 ± 0.4%

Reference: article PMC10239507, “Development of allosteric and selective CDK2 inhibitors for contraception with negative cooperativity to cyclin binding” (Nature Communications, 2023)
